This note sets out measurements from US5462954A, “Substituted phenyl phenol leukotriene antagonists” (Eli Lilly and Company, priority 1994, dated 1995).

The structures appear in SMILES notation. Counter-ions that a name gives are not always drawn.

This assay has as its target binding of tritiated LTB4 to guinea pig lung membranes (Cavia porcellus, UniProt H0VYV8). Description: biochemical. To be noted: read-out: pKi (mean -log Ki) (converted).

Sequence of binding of tritiated LTB4 to guinea pig lung membranes (H0VYV8 1-348): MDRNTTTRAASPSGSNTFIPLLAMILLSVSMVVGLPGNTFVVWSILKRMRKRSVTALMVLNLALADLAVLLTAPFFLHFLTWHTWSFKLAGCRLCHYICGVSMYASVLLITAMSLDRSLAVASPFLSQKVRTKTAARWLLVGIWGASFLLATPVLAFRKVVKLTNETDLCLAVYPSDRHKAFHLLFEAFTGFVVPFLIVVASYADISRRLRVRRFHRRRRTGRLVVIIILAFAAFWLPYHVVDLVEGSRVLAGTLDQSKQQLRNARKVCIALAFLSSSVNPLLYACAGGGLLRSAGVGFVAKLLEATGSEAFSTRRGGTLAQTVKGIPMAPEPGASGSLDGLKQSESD
Description: The effectiveness of compounds of Formula I to inhibit the binding of tritiated LTB4 to guinea pig lung membranes was determined as follows.
The binding reaction was terminated by the addition of 1 mL ice cold wash buffer (25 mM Tris-HCl, pH 7.5) followed immediately by vacuum filtration over Whatman GF/C glass fiber filters using a Brandel (Gaithersburg, Md.) 48 place harvester. The filters were washed three times with 1 mL of wash buffer. Retained radioactivity was determined by liquid scintillation counting at 50% counting efficiency using Ready Protein Plus cocktail (Beckman, Fullerton, Calif.). Nondisplaceable binding was determined in the presence of 1 μM LTB4 and was usually less than 10% of total binding. […] The data reported below is the mean -log Ki, otherwise known as the pKi, for n experiments.

As to `CCc1cc(-c2ccc(F)cc2)c(O)cc1OCC/C=C\c1ccccc1CCC(=O)O` [9 (cis), 3-(2-(4-(2-Ethyl-4-(4-fluorophenyl)-5-hydroxyphenoxy)-(1-butenyl))phenyl)propionic acid], the Ki (usually the dissociation constant of the complex between target and ligand, obtained from inhibition or displacement) was 3.63 nM.

As to `CCc1cc(-c2ccc(F)cc2)c(O)cc1OCC/C=C/c1ccccc1CCC(=O)O` [9 (trans), 3-(2-(4-(2-Ethyl-4-(4-fluorophenyl)-5-hydroxyphenoxy)-(1-butenyl))phenyl)propionic acid], the Ki is 3.89 nM.

As for `CCc1cc(-c2ccc(F)cc2)c(O)cc1OCCCOc1cccc(OCCCCC(=O)N(C)C)c1CCC(=O)O` [Example 3, 3-(2-(3-(2-Ethyl-4-(4-fluorophenyl)-5-hydroxyphenoxy)propoxy)-6-(4-dimethylaminocarbonylbutyloxy)phenyl)propionic acid], the Ki was 8.32 nM.

Regarding `CCc1cc(-c2ccc(F)cc2)c(O)cc1OCCCOc1ccccc1CCC(=O)O` [Example 4, 3-(2-(3-(2-Ethyl-4-(4-fluorophenyl)-5-hydroxyphenoxy)propoxy)phenyl)propionic acid], the inhibition constant Ki is 3.63 nM.

For the compound `CCc1cc(-c2ccc(F)cc2)c(O)cc1OCCCOc1cccc(OCCCCC(=O)O)c1CCC(=O)O` [Example 5, 3-(2-(3-(2-Ethyl-4-(4-fluorophenyl)-5-hydroxyphenoxy)propoxy)-6-(4-carboxybutyloxy)phenyl)propionic acid], the Ki is 0.55 nM.

As for `CCc1cc(-c2ccc(F)cc2)c(O)cc1OCCCOc1cccc(OC)c1CCC(=O)O` [Example 6, 3-(2-(3-(2-Ethyl-4-(4-fluorophenyl)-5-hydroxyphenoxy)propoxy)-6-methoxyphenyl)propionic acid], the Ki is 5.01 nM.

Take `CCc1cc(-c2ccc(F)cc2)c(O)cc1OCCCOc1cccc(OCCCCc2nnn[nH]2)c1CCC(=O)O` [Example 7, 3-(2-(3-(2-Ethyl-4-(4-fluorophenyl)-5-hydroxyphenoxy)propoxy)-6-(4-(1H-tetrazol-5-yl)butyloxy)phenyl)propionic acid]: the inhibitory constant (Ki) is 1.35 nM.

Take `CCc1cc(-c2ccc(F)cc2)c(O)cc1OCCC=Cc1ccccc1CCC(=O)O` [Example 9, 3-(2-(4-(2-Ethyl-4-(4-fluorophenyl)-5-hydroxyphenoxy)-(1-butenyl))phenyl)propionic acid]: the inhibition constant Ki was 5.13 nM.

For `CCc1cc(-c2ccc(F)cc2)c(O)cc1OCCCCc1ccccc1CCC(=O)O` [Example 10, 3-(2-(4-(2-Ethyl-4-(4-fluorophenyl)-5-hydroxyphenoxy)butyl)phenyl)propionic acid], the Ki is 8.91 nM.

`CCc1cc(-c2ccc(F)cc2)c(O)cc1OCCCCc1cccc(OC)c1CCC(=O)O` [Example 11, 3-(2-(4-(2-Ethyl-4-(4-fluorophenyl)-5-hydroxyphenoxy)butyl)-6-methoxyphenyl)propionic acid]: the inhibition constant Ki is 21.4 nM.

In the case of `CCc1cc(-c2ccc(F)cc2)c(O)cc1OCCCOc1cccc(O)c1CCC(=O)O` [Example 13, 3-(2-(3-(2-Ethyl-4-(4-fluorophenyl)-5-hydroxyphenoxy)propoxy)-6-hydroxyphenyl)propionic acid], the Ki was 0.977 nM.

Regarding `CCCCOc1cccc(OCCCOc2cc(O)c(-c3ccc(F)cc3)cc2CC)c1CCC(=O)O` [Example 14, 3-(2-(3-(2-Ethyl-4-(4-fluorophenyl)-5-hydroxyphenoxy)propoxy)-6-(4-butyloxy)phenyl)propionic acid], the Ki is 30.2 nM.

Regarding `CCc1cc(-c2ccc(F)cc2)c(O)cc1OCCCOc1cccc(OCCCCSC)c1CCC(=O)O` [Example 15, 3-(2-(3-(2-Ethyl-4-(4-fluorophenyl)-5-hydroxyphenoxy)propoxy)-6-(4-methylthiobutyloxy)phenyl)propionic acid], the inhibitory constant (Ki) was 5.89 nM.

On to `O=C(O)CCCCOc1cccc(OCCCOc2cc(O)c(-c3ccc(F)cc3)cc2-c2ccc(F)cc2)c1CCC(=O)O` [Example 16, 3-(2-(3-(2,4-Di(4-fluorophenyl)-5-hydroxyphenoxy)propoxy)-6-(4-carboxybutoxy)phenyl)propionic acid], for which the Ki is 17.4 nM.

Take `CCCCCC(C)(CCCCCOc1cc(O)c(-c2ccc(F)cc2)cc1CC)c1nnn[nH]1` (centres unmarked) [Example 17, 6-Methyl-6-(1H-tetrazol-5-yl)-11-(2-ethyl-4-(4-fluorophenyl)-5-hydroxyphenoxy)undecane]: the Ki was 53.7 nM.

`CCc1cc(-c2ccc(F)cc2)c(O)cc1OCCCOc1ccccc1CCC(=O)N(C)C` [Example 18, N,N-Dimethyl-3-(2-(3-(2-ethyl-4-(4-fluorophenyl)-5-hydroxyphenoxy)propoxy)phenyl)propionamide]: the inhibition constant Ki is 245 nM.

As to `CCc1cc(-c2ccc(F)cc2)c(O)cc1OCCCOc1ccccc1CCC(=O)NS(C)(=O)=O` [Example 19, N-Methanesulfonyl-3-(2-(3-(2-ethyl-4-(4-fluorophenyl)-5-hydroxyphenoxy)propoxy)phenyl)propionamide], the Ki is 1.51 nM.

Turning to `CCc1cc(-c2ccc(F)cc2)c(O)cc1OCCCOc1ccccc1CCC(=O)NS(=O)(=O)c1ccccc1` [Example 20, N-Phenylsulfonyl-3-(2-(3-(2-ethyl-4-(4-fluorophenyl)-5-hydroxyphenoxy)propoxy)phenyl)propionamide], the inhibitory constant (Ki) is 2.29 nM.

As for `CCCCc1cc(-c2ccc(F)cc2)c(O)cc1OCCCOc1ccccc1CCC(=O)O` [Example 21, 3-(2-(3-(2-Butyl-4-(4-fluorophenyl)-5-hydroxyphenoxy)propoxy)phenyl)propionic acid], the Ki is 47.9 nM.

As to `CCc1cc(-c2ccc(F)cc2)c(O)cc1OCCCCOc1ccccc1CCC(=O)O` [Example 23, 3-(2-(4-(2-Ethyl-4-(4-fluorophenyl)-5-hydroxyphenoxy)butyloxy)phenyl)propionic acid], the inhibition constant (Ki) is 3.72 nM.

As to `CCc1cc(-c2ccc(F)cc2)c(O)cc1OCCCOc1cccc(Oc2ccc(C(=O)O)cc2)c1CCC(=O)O` [Example 25, 3-(2-(3-(2-Ethyl-4-(4-fluorophenyl)-5-hydroxyphenoxy)propoxy)-6-(4-carboxyphenoxy)phenyl)propionic acid], the inhibitory constant (Ki) is 0.138 nM.

`CCc1cc(-c2ccc(F)cc2)c(O)cc1OCCCOc1cc(Oc2ccc(C(=O)O)cc2)ccc1CCC(=O)O` [Example 26, 3-(2-(3-(2-Ethyl-4-(4-fluorophenyl)-5-hydroxyphenoxy)propoxy)-4-(4-carboxyphenoxy)phenyl)propionic acid]: the Ki is 13.8 nM.

For `CCc1cc(-c2ccc(F)cc2)c(O)cc1OCCCOc1ccccc1C(C)(C)CC(=O)O` [Example 27, 3,3-Dimethyl-3-(2-(3-(2-ethyl-4-(4-fluorophenyl)-5-hydroxyphenoxy)propoxy)phenyl)propionic acid], the inhibition constant (Ki) is 2.29 nM.

For the compound `CCc1cc(-c2ccc(F)cc2)c(O)cc1OCCCOc1ccccc1CC(C)(C)c1nnn[nH]1` [Example 28, 2-Methyl-2-(1H-tetrazol-5-yl)-3-(2-(3-(2-ethyl-4-(4-fluorophenyl)-5-hydroxyphenoxy)propoxy)phenyl)propane], the Ki was 2.69 nM.

As to `CCc1cc(-c2ccc(F)cc2)c(O)cc1OCCCOc1ccccc1C(O)C(C)(C)c1nnn[nH]1` (centres unmarked) [Example 29, 2-Methyl-2-(1H-tetrazol-5-yl)-3-hydroxy-3-(2-(3-(2-ethyl-4-(4-fluorophenyl)-5-hydroxyphenoxy)propoxy)phenyl)propane], the inhibition constant Ki was 1.95 nM.

For the compound `O=C(O)CCc1ccccc1OCCCOc1cc(O)c(-c2ccc(F)cc2)cc1Br` [Example 30, 3-(2-(3-(2-Bromo-4-(4-fluorophenyl)-5-hydroxyphenoxy)propoxy)phenyl)propionic acid], the Ki was 186 nM.

Turning to `CCSc1cc(-c2ccc(F)cc2)c(O)cc1OCCCOc1ccccc1CCC(=O)O` [Example 31, 3-(2-(3-(2-Ethylthio-4-(4-fluorophenyl)-5-hydroxyphenoxy)propoxy)phenyl)propionic acid], the Ki is 81.3 nM.

Consider `CCc1cc(-c2ccc(F)cc2)c(O)cc1OCCCOc1ccc(CCCCC(=O)O)c2c1CCC(=O)O2` [Example 33, 5-(3-(2-Ethyl-4-(4-fluorophenyl)-5-hydroxyphenoxy)propoxy)-8-(4-carboxybutyl)dihydrocoumarin], for which the inhibitory constant (Ki) was 0.257 nM.

Turning to `CCc1cc(-c2ccccc2)c(O)cc1OCCCOc1ccc2c(c1CCC(=O)O)CCC(CC(=O)O)C2=O` (centres unmarked) [Example 50, 3-(5-(6-(4-Phenyl-5-hydroxy-2-ethylphenoxy)propoxy)-2-carboxymethyl-1,2,3,4-tetrahydronaphthalen-1(2H)-one)propanoic acid], the Ki is 0.851 nM.

Turning to `CCc1cc(-c2ccc(F)cc2)c(O)cc1OCCCOc1ccc2c(c1CCC(=O)O)CCC(CC(=O)O)C2=O` (centres unmarked) [Example 51, 3-(5-(6-(4-(4-Fluorophenyl)-5-hydroxy-2-ethylphenoxy)propoxy)-2-carboxymethyl-1,2,3,4-tetrahydronaphthalen-1(2H)-one)propanoic acid], the Ki was 0.219 nM.

Turning to `CCc1cc(-c2ccc(F)cc2)c(O)cc1OCCCOc1ccc2c(c1CCC(=O)O)CC(CC(=O)O)C2=O` (centres unmarked) [Example 52, 3-(4-(5-(4-(4-Fluorophenyl)-5-hydroxy-2-ethylphenoxy)propoxy)-2-carboxymethyl-2,3-dihydroinden-1(2H)-one)propanoic acid], the inhibition constant (Ki) was 0.263 nM.

With `CCc1cc(-c2ccc(F)cc2)c(O)cc1OCCCOc1ccc(C(=O)CC(C)(C)CC(=O)O)cc1CCC(=O)O` [Example 53], the Ki was 1.55 nM.

Take `CCCc1c(OCCCOc2cc(O)c(-c3ccccc3)cc2CC)ccc2c1OC(C(=O)O)CC2` (centres unmarked) [Example 54, 7-[3-[(5-Ethyl-2-hydroxy[1,1'-biphenyl]-4-yl)oxy]propoxy]-3,4-dihydro-8-propyl-2H-1-benzopyran-2-carboxylic acid]: the Ki is 1.2 nM.

Turning to `CCc1cc(-c2ccccc2)c(O)cc1OCCCOc1ccc2oc3ccccc3c2c1CCC(=O)O` [Example 59, 3-[2-[3-[(5-Ethyl-2-hydroxy[1,1'-biphenyl]-4-yl)oxy]propoxy]-1-dibenzofuran]propanoic acid disodium salt], the Ki was 51.3 nM.

Regarding `CCc1cc(-c2ccccc2)c(O)cc1OCCCOc1ccc2c(=O)c3cc(C(=O)O)ccc3oc2c1CCC(=O)O` [Example 60, 7-Carboxy-9-oxo-3-[3-(2-ethyl-5-hydroxy-4-phenylphenoxy)propoxy]-9H-xanthene-4-propanoic acid disodium salt monohydrate], the inhibition constant Ki was 0.0646 nM.
